Measurements as given in paper PMC8037310, “Thrombin-Derived Peptides Potentiate the Activity of Gram-Positive-Specific Antibiotics against Gram-Negative Bacteria” (Molecules, 2021).
Where two headings read alike, the source gives them in different places. Peptide text beside a SMILES is read from it.

Legend:
K. pneumoniae ATCC13883 = experiment: Checkerboard assay with rifampicin; format: cell-based, Klebsiella pneumoniae; conditions: K. pneumoniae ATCC13883; for MICpeptide: peptide alone; for MSCpeptide: peptide concentration in the combination with rifampicin giving the lowest FICi; for MSCrif: rifampicin concentration in the combination giving the lowest FICi
Method in brief: (§1)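 Checkerboard of peptide serial dilutions against rifampicin concentrations in triplicate, in LB with 1.0 × 10^6 CFU/mL final inoculum after mixing the 2.0 × 10^6 CFU/mL stock 1:1, 20 h at 37 °C shaking. OD600 read; FICi = MSCa/MICa + MSCb/MICb, ≤0.5 taken as synergy.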

A. baumannii ATCC17978 = experiment: microbe, parasite or virus in culture; format: cell-based, Acinetobacter baumannii; conditions: for FICi: ATCC17978, 20 h; for MICpeptide: peptide alone; for MICpeptide / MSCpeptide / MSCrif: A. baumannii ATCC17978; for MSCpeptide: peptide concentration in the combination with rifampicin giving the lowest FICi; for MSCrif: rifampicin concentration in the combination giving the lowest FICi
Method in brief: as §1

[1] = tested on: E. coli EQASmcr-1 (EQAS 2016 412016126); format: cell-based, Escherichia coli; conditions: for FICi: EQASmcr-1 (EQAS 2016 412016126, 20 h); for MICpeptide: peptide alone; for MICpeptide / MSCpeptide / MSCrif: E. coli EQASmcr-1; for MSCpeptide: peptide concentration in the combination with rifampicin giving the lowest FICi; for MSCrif: rifampicin concentration in the combination giving the lowest FICi
E. coli mcr-1 = format: cell-based, Escherichia coli; conditions: for MICpeptide: peptide alone; for MICpeptide / MSCpeptide / MSCrif: E. coli mcr-1; for MSCpeptide: peptide concentration in the combination with rifampicin giving the lowest FICi; for MSCrif: rifampicin concentration in the combination giving the lowest FICi
Method in brief: as §1

[2] = tested on: E. coli EQASmcr-3 (EQAS 2017 2013-SQ352); format: cell-based, Escherichia coli; conditions: for MICpeptide: peptide alone; for MICpeptide / MSCpeptide / MSCrif: E. coli EQASmcr-3; for MSCpeptide: peptide concentration in the combination with rifampicin giving the lowest FICi; for MSCrif: rifampicin concentration in the combination giving the lowest FICi
E. coli W3110 = format: cell-based, Escherichia coli; conditions: for FICi: W3110, 20 h; for MICpeptide: peptide alone; for MICpeptide / MSCpeptide / MSCrif: E. coli W3110; for MSCpeptide: peptide concentration in the combination with rifampicin giving the lowest FICi; for MSCrif: rifampicin concentration in the combination giving the lowest FICi
[3] = tested on: E. coli EQASmcr-2 (EQAS 2016 KP37); format: cell-based, Escherichia coli; conditions: for MICpeptide: peptide alone; for MICpeptide / MSCpeptide / MSCrif: E. coli EQASmcr-2; for MSCpeptide: peptide concentration in the combination with rifampicin giving the lowest FICi; for MSCrif: rifampicin concentration in the combination giving the lowest FICi
E. coli BW25113 [4] = format: cell-based, Escherichia coli; conditions: for FICi: BW25113, 20 h; for MICpep: synergist alone, E. coli BW25113, from checkerboard with rifampicin; for MSCpep: synergist concentration in the combination with rifampicin giving the lowest FICi, E. coli BW25113
E. coli ATCC25922 = format: cell-based, Escherichia coli; conditions: for FICi: ATCC25922, 20 h; for MICpeptide: peptide alone; for MICpeptide / MSCpeptide / MSCrif: E. coli ATCC25922; for MSCpeptide: peptide concentration in the combination with rifampicin giving the lowest FICi; for MSCrif: rifampicin concentration in the combination giving the lowest FICi
Method in brief: as §1

P. aeruginosa ATCC27853 = experiment: Checkerboard assay with rifampicin; format: cell-based, Pseudomonas aeruginosa; conditions: P. aeruginosa ATCC27853; for MICpeptide: peptide alone; for MSCpeptide: peptide concentration in the combination with rifampicin giving the lowest FICi; for MSCrif: rifampicin concentration in the combination giving the lowest FICi
Method in brief: as §1

E. coli BW25113 [5] = experiment: microbe, parasite or virus in culture; format: cell-based, Escherichia coli; conditions: for MICpeptide: synergist alone, E. coli BW25113, from checkerboard with vancomycin; for MSCpeptide: synergist concentration in the combination with vancomycin giving the lowest FICi; for MSCpeptide / MSCvanco: E. coli BW25113; for MSCvanco: vancomycin concentration in the combination giving the lowest FICi
E. coli BW25113 [6] = experiment: microbe, parasite or virus in culture; format: cell-based, Escherichia coli; conditions: for FICi: BW25113, 20 h; for MSCnovo: novobiocin concentration in the combination giving the lowest FICi; for MSCnovo / MSCpeptide: E. coli BW25113; for MICpeptide: synergist alone, E. coli BW25113, from checkerboard with novobiocin; for MSCpeptide: synergist concentration in the combination with novobiocin giving the lowest FICi

## CC[C@H](C)[C@H](NC(=O)[C@@H](NC(=O)[C@H](CCCCN)NC(=O)[C@H](CCC(N)=O)NC(=O)[C@@H](NC(=O)[C@H](C)NC(=O)[C@H](CCCCN)NC(=O)[C@H](CCCCN)NC(=O)[C@H](CC(C)C)NC(=O)[C@H](CCCNC(=N)N)NC(=O)[C@H](Cc1ccccc1)NC(=O)[C@@H](N)C(C)C)[C@@H](C)CC)C(C)C)C(N)=O [peptide 14] (H-VFRLKKAIQKVI-NH2)
K. pneumoniae ATCC13883
  MICpeptide: > 200 µg/mL
  MSCpeptide: 6.25 µg/mL
  MSCrif: 0.25 µg/mL
A. baumannii ATCC17978
  FICi: 0.0781
  MICpeptide: > 200 µg/mL
  MSCpeptide: 6.25 µg/mL
  MSCrif: 0.125 µg/mL
[1]
  FICi: 0.0938
  MICpeptide: > 200 µg/mL
  MSCpeptide: 12.5 µg/mL
  MSCrif: 0.5 µg/mL
E. coli mcr-1
  MICpeptide: > 200 µg/mL
  MSCpeptide: 25 µg/mL
  MSCrif: 0.75 µg/mL
E. coli mcr-1; with rifampicin vs E. coli mcr-1
  FICi: 0.1250
[2]; EQASmcr-3 (EQAS 2017 2013-SQ352, 20 h)
  FICi: 0.0469
[2]
  MICpeptide: > 200 µg/mL
  MSCpeptide: 12.5 µg/mL
  MSCrif: 0.125 µg/mL
E. coli W3110
  FICi: 0.1875
  MICpeptide: > 200 µg/mL
  MSCpeptide: 50 µg/mL
  MSCrif: 0.5 µg/mL
[3]; EQASmcr-2 (EQAS 2016 KP37, 20 h)
  FICi: 0.0938
[3]
  MICpeptide: > 200 µg/mL
  MSCpeptide: 25 µg/mL
  MSCrif: 0.25 µg/mL
E. coli BW25113 [4]
  FICi: 0.1406
  MICpep: > 200 µg/mL
  MSCpep: 50 µg/mL
E. coli ATCC25922
  FICi: 0.0313
  MICpeptide: > 200 µg/mL
  MSCpeptide: 6.25 µg/mL
  MSCrif: 0.063 µg/mL
P. aeruginosa ATCC27853
  MICpeptide: > 200 µg/mL
  MSCpeptide: 50 µg/mL
  MSCrif: 0.5 µg/mL
E. coli BW25113 [5]; BW25113, 20 h
  FICi: 0.2500
E. coli BW25113 [5]
  MICpeptide: > 200 µg/mL
  MSCpeptide: 50 µg/mL
  MSCvanco: 50 µg/mL
E. coli BW25113 [6]
  FICi: 0.0313
  MSCnovo: 6.25 µg/mL
  MICpeptide: > 200 µg/mL
  MSCpeptide: 6.25 µg/mL

## CC[C@H](C)[C@H](NC(=O)[C@H](Cc1c[nH]c2ccccc12)NC(=O)[C@H](CCCCN)NC(=O)[C@H](CCCCN)NC(=O)[C@H](CC(C)C)NC(=O)[C@H](CCCNC(=N)N)NC(=O)[C@H](Cc1ccccc1)NC(=O)[C@@H](N)C(C)C)C(=O)N[C@@H](CCC(N)=O)C(=O)N[C@@H](CCCCN)C(=O)N[C@H](C(=O)N[C@@H](C)C(N)=O)C(C)C [peptide 19] (H-VFRLKKWIQKVA-NH2)
K. pneumoniae ATCC13883
  MICpeptide: > 200 µg/mL
  MSCpeptide: 6.25 µg/mL
  MSCrif: 0.25 µg/mL
A. baumannii ATCC17978
  FICi: 0.0938
  MICpeptide: 100 µg/mL
  MSCpeptide: 6.25 µg/mL
  MSCrif: 0.063 µg/mL
[1]
  FICi: 0.0938
  MICpeptide: > 200 µg/mL
  MSCpeptide: 12.5 µg/mL
  MSCrif: 0.5 µg/mL
E. coli mcr-1
  MICpeptide: > 200 µg/mL
  MSCpeptide: 25 µg/mL
  MSCrif: 0.75 µg/mL
[2]
  MICpeptide: > 200 µg/mL
  MSCpeptide: 6.25 µg/mL
  MSCrif: 0.125 µg/mL
E. coli W3110
  FICi: 0.0782
  MICpeptide: 100 µg/mL
  MSCpeptide: 3.125 µg/mL
  MSCrif: 0.5 µg/mL
[3]
  MICpeptide: 200 µg/mL
  MSCpeptide: 12.5 µg/mL
  MSCrif: 0.5 µg/mL
[3]; with rifampicin vs E. coli EQASmcr-2
  FICi: 0.1250
E. coli BW25113 [4]
  FICi: 0.0781
  MICpep: 100 µg/mL
  MSCpep: 6.25 µg/mL
E. coli ATCC25922
  FICi: 0.0313
  MICpeptide: > 200 µg/mL
  MSCpeptide: 6.25 µg/mL
  MSCrif: 0.063 µg/mL
P. aeruginosa ATCC27853
  MICpeptide: 100 µg/mL
  MSCpeptide: 25 µg/mL
  MSCrif: 0.25 µg/mL
E. coli BW25113 [5]
  MICpeptide: 200 µg/mL
  MSCpeptide: 12.5 µg/mL
  MSCvanco: 6.25 µg/mL
E. coli BW25113 [6]
  FICi: 0.0390
  MSCnovo: 3.125 µg/mL
  MICpeptide: 200 µg/mL
  MSCpeptide: 6.25 µg/mL
